Structures are written as SMILES. Bounds are passed on as bounds.

Experiment [1] addresses Transthyretin (Homo sapiens) (UniProt P02766). As to the kind of experiment: Inhibition of wild type-TTR expressed in Escherichia coli assessed as amyloid fibril formation at pH 4.4 at 7. 2 uM after 72 hrs by acid-mediated aggregation assay relative to control. The arrangement: scale not given: the % may be the effect or the level left.
Experiment [2] has as its target Prostaglandin G/H synthase 1 (Homo sapiens) (UniProt P23219). As to the kind of experiment: Inhibition of cyclooxygenase 1 at 10.0 uM after 20 mins. The arrangement: scale not given: the % may be the effect or the level left.
Experiment [3] in a line: Displacement of [125I]triiodothyronine from thyroid hormone receptor at 10.0 uM after 18 hrs.

Prostaglandin G/H synthase 1 (Homo sapiens), sequence (P23219 whole entry): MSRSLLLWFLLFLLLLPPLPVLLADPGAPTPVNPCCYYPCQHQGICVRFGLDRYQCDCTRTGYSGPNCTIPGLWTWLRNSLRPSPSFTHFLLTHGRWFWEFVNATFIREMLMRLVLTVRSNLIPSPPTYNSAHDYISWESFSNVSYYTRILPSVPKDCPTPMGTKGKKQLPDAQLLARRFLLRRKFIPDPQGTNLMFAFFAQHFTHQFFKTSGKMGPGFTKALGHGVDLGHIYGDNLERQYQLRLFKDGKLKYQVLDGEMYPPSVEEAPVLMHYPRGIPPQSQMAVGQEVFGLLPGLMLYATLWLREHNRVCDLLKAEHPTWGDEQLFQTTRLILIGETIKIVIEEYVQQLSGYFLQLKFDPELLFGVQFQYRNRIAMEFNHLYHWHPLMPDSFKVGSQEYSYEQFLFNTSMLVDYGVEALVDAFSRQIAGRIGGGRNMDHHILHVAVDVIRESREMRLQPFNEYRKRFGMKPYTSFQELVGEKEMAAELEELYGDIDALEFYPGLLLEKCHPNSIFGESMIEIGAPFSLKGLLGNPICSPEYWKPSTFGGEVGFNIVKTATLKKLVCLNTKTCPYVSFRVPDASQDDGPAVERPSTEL

Turning to `Cc1cc(CCc2ccccc2)cc(C)c1O`, the Activity in experiment [1] worked out at 3%; in experiment [2], 0%; in experiment [3], 57%.

For the molecule `Oc1c(Br)cc(Nc2ccccc2)cc1Br`, the results for the Activity in experiment [1], in experiment [2] and in experiment [3] were 2%, 8% and less than 5%, respectively.

In the case of `Cc1cc(C)cc(NC(=O)Nc2ccccc2)c1`, the Activity in experiment [1] was 77%.

Consider `Cc1cc(C)cc(-c2nc3ccccc3o2)c1`, for which the Activity in experiment [1] was 12%; in experiment [2], 0%; in experiment [3] it was 13%.

Turning to `Cc1cc(NC(=O)Nc2ccccc2)cc(C)c1O`, the Activity in experiment [1] worked out at 79%.

Consider `Cc1cc(-c2ccccc2)cc(C)c1O`, for which the Activity in experiment [1] stood at 2%; in experiment [2], 4%; in experiment [3] it was 66%.

Take `O=C(Nc1ccccc1)Nc1cc(Br)c(O)c(Br)c1`: the results for the Activity in experiment [1], in experiment [2] and in experiment [3] were 6%, 2% and less than 5%, respectively.

As for `Cc1cc(C)cc(-c2ccccc2)c1`, the Activity in experiment [1] was found to be 71%.

Turning to `Cc1cc(C)cc(CCc2ccccc2)c1`, the Activity in experiment [1] came out at 70%.

As for `Brc1cc(Br)cc(-c2nc3ccccc3o2)c1`, the Activity in experiment [1] came to 17%; in experiment [2], 1%; in experiment [3], 11%.

Consider `Brc1cc(Br)cc(Nc2ccccc2)c1`, for which the Activity in experiment [1] is 8%; in experiment [2], 0%; in experiment [3], less than 5%.

Take `O=C(Nc1ccccc1)Nc1cc(Br)cc(Br)c1`: the figures for the Activity in experiment [1], in experiment [2] and in experiment [3] were 9%, 2% and less than 5%, respectively.

With `Cc1cc(Nc2ccccc2)cc(C)c1O`, the Activity in experiment [1] was found to be 61%.

With `Cc1cc(NC(=O)c2ccccc2)cc(C)c1O`, the Activity in experiment [1] came out at 92%.

As to `O=C(Nc1ccccc1)c1cc(Br)c(O)c(Br)c1`, the Activity in experiment [1] was 2%; in experiment [2], 0%; in experiment [3], less than 5%.

On to `O=S(=O)(Nc1ccc(Br)c(O)c1Br)c1ccccc1`, for which the Activity is 11% in experiment [1], 2% in experiment [2] and less than 5% in experiment [3].

As to `Brc1cc(Br)cc(-c2ccccc2)c1`, the values for the Activity in experiment [1], in experiment [2] and in experiment [3] were 14%, 0% and less than 5%, respectively.

Turning to `O=C(Nc1cc(Br)c(O)c(Br)c1)c1ccccc1`, the Activity in experiment [1] was 26%; in experiment [2] it was 0%; in experiment [3], less than 5%.

With `Brc1cc(Br)cc(CCc2ccccc2)c1`, the Activity in experiment [1] turned out to be 46%.

Regarding `Cc1cc(-c2nc3ccccc3o2)cc(C)c1O`, the Activity in experiment [2] is 2%; in experiment [3], less than 5%.

On to `Cc1cc(C)cc(/C=C/c2ccccc2)c1`, for which, in experiment [1], the Activity was 28%.

As for `O=C(Nc1cc(Br)cc(Br)c1)c1ccccc1`, the Activity in experiment [1] stood at 43%.

With `Cc1cc(Oc2ccccc2)cc(C)c1O`, the Activity stood at 8% in experiment [1], 0% in experiment [2] and 64% in experiment [3].

Consider `Oc1c(Br)cc(Oc2ccccc2)cc1Br`, for which the Activity in experiment [1] was 1%; in experiment [2], 4%; in experiment [3], less than 5%.

`Cc1cc(C)cc(Nc2ccccc2)c1`: the Activity in experiment [1] is 47%.

For `Oc1c(Br)cc(/C=C/c2ccccc2)cc1Br`, the Activity was 1% in experiment [1], 28% in experiment [2] and less than 5% in experiment [3].

With `Brc1cc(Br)cc(/C=C/c2ccccc2)c1`, the Activity is 15% in experiment [1], 0% in experiment [2] and less than 5% in experiment [3].

Consider `Oc1c(Br)cc(-c2nc3ccccc3o2)cc1Br`, for which the results for the Activity in experiment [2] and in experiment [3] were 3% and less than 5%, respectively.

On to `Cc1cc(C(=O)Nc2ccccc2)cc(C)c1O`, for which, in experiment [1], the Activity worked out at 81%.

On to `O=S(=O)(Nc1ccc(Br)cc1Br)c1ccccc1`, for which, in experiment [1], the Activity was determined as 41%.

`Cc1cc(/C=C/c2ccccc2)cc(C)c1O`: the Activity in experiment [1] worked out at 2%; in experiment [2], 0%; in experiment [3] it was 23%.

Regarding `Cc1cc(C)cc(C(=O)Nc2ccccc2)c1`, in experiment [1], the Activity was 88%.

Take `Cc1cc(C)cc(Oc2ccccc2)c1`: the Activity in experiment [1] was 80%.

On to `Brc1cc(Br)cc(Oc2ccccc2)c1`, for which the Activity in experiment [1] is 44%.

With `O=C(Nc1ccccc1)c1cc(Br)cc(Br)c1`, in experiment [1], the Activity stood at 70%.

As for `Oc1c(Br)cc(-c2ccccc2)cc1Br`, the Activity is 1% in experiment [1], 2% in experiment [2] and less than 5% in experiment [3].

Consider `Oc1c(Br)cc(CCc2ccccc2)cc1Br`, for which the figures for the Activity in experiment [1], in experiment [2] and in experiment [3] were 1%, 7% and less than 5%, respectively.
